Measured values from PubChem BioAssay AID248 (DTP/NCI, 2004).
Toxic doses and inconclusive results are not listed. No stated cut-off is given here; in the data, active means T/C of 150% or more; inactive means T/C below 125%.

Tested on: L1210 leukemia ip in BDF1 mice, survival T/C
Experiment: NCI In Vivo Anticancer Drug Screen. Data for tumor model L1210 Leukemia (intraperitoneal) in B6D2F1 (BDF1) mice
Conditions: endpoint: mean survival time, higher = longer survival
Outline: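 Ratio derived from survival: compound-dosed mice over vehicle-dosed mice, all bearing a transplantable tumor.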

[1] = dose: 100.0 mg/kg/injection, schedule: Q04DX003 (ip), vehicle: saline with Tween-80
[2] = dose: 200.0 mg/kg/injection, schedule: Q04DX003 (ip), vehicle: saline with Tween-80
[3] = dose: 100.0 mg/kg/injection, schedule: Q01DX001 (ip), vehicle: saline
[4] = dose: 200.0 mg/kg/injection, schedule: Q01DX001 (ip), vehicle: saline
[5] = dose: 400.0 mg/kg/injection, schedule: Q01DX001 (ip), vehicle: saline
[6] = dose: 100.0 mg/kg/injection, schedule: Q01DX001 (ip), vehicle: other
[7] = dose: 200.0 mg/kg/injection, schedule: Q01DX001 (ip), vehicle: other
[8] = dose: 100.0 mg/kg/injection, schedule: Q04DX003 (ip), vehicle: water
[9] = dose: 200.0 mg/kg/injection, schedule: Q04DX003 (ip), vehicle: water
[10] = dose: 400.0 mg/kg/injection, schedule: Q04DX003 (ip), vehicle: water
[11] = dose: 400.0 mg/kg/injection, schedule: Q01DX001 (ip), vehicle: other
[12] = dose: 400.0 mg/kg/injection, schedule: Q04DX003 (ip), vehicle: saline with Tween-80

Measured: T/C

Cc1cccc(NC=O)c1
inactive: dose: 100.0 mg/kg/injection, schedule: Q01DX009 (ip), vehicle: saline with Tween-80 100 % of control | [1] 97 % of control | dose: 200.0 mg/kg/injection, schedule: Q01DX009 (ip), vehicle: saline with Tween-80 98 % of control | [2] 102 % of control | dose: 400.0 mg/kg/injection, schedule: Q01DX009 (ip), vehicle: saline with Tween-80 99 % of control

CC(=O)Oc1ccc(OC(C)=O)c2c1C1C=CC2C1
inactive: [3] 103 % of control | [4] 103 % of control | [5] 101 % of control

CCOC(=O)C1C(=O)CC(=O)C(C(=O)OCC)C1c1ccc(O)cc1 (centres undefined)
inactive: dose: 100.0 mg/kg/injection, schedule: Q01DX009 (ip), vehicle: Klucel (hydroxypropylcellulose) (HPC) 95 % of control | dose: 100.0 mg/kg/injection, schedule: Q04DX003 (ip), vehicle: Klucel (hydroxypropylcellulose) (HPC) 97 % of control | dose: 200.0 mg/kg/injection, schedule: Q01DX009 (ip), vehicle: Klucel (hydroxypropylcellulose) (HPC) 98 % of control | dose: 200.0 mg/kg/injection, schedule: Q04DX003 (ip), vehicle: Klucel (hydroxypropylcellulose) (HPC) 104 % of control | dose: 400.0 mg/kg/injection, schedule: Q01DX009 (ip), vehicle: Klucel (hydroxypropylcellulose) (HPC) 97 % of control | dose: 400.0 mg/kg/injection, schedule: Q04DX003 (ip), vehicle: Klucel (hydroxypropylcellulose) (HPC) 107 % of control

CCCCCCCCCCCCCCCCCC[N+](CCCC)(CCCC)CCCCCCCCCCCCCCCCCC (tested in a mixture with another compound)
inactive: [6] 93 % of control | [7] 90 % of control

Cc1cc(C)c(Sc2cc(C)sc2C)c(C)c1
inactive: dose: 100.0 mg/kg/injection, schedule: Q01DX001 (ip), vehicle: acetone 91 % of control | dose: 100.0 mg/kg/injection, schedule: Q04DX003 (ip), vehicle: acetone 91 % of control | dose: 200.0 mg/kg/injection, schedule: Q01DX001 (ip), vehicle: acetone 91 % of control | dose: 200.0 mg/kg/injection, schedule: Q04DX003 (ip), vehicle: acetone 91 % of control | dose: 400.0 mg/kg/injection, schedule: Q01DX001 (ip), vehicle: acetone 91 % of control | dose: 400.0 mg/kg/injection, schedule: Q04DX003 (ip), vehicle: acetone 100 % of control

CC(=O)OC1=C(OC(C)=O)N(S(=O)(=O)c2ccc(C)cc2)CCc2ccccc21
inactive: dose: 100.0 mg/kg/injection, schedule: Q01DX001 (ip), vehicle: carboxymethylcellulose (CMC) 97 % of control | dose: 200.0 mg/kg/injection, schedule: Q01DX001 (ip), vehicle: carboxymethylcellulose (CMC) 94 % of control | dose: 400.0 mg/kg/injection, schedule: Q01DX001 (ip), vehicle: carboxymethylcellulose (CMC) 100 % of control

COC(=O)C1C2OC(C3OC32)C1C(=O)OC (centres undefined)
inactive: dose: 100.0 mg/kg/injection, schedule: Q01DX009 (ip), vehicle: saline 103 % of control | dose: 200.0 mg/kg/injection, schedule: Q01DX009 (ip), vehicle: saline 104 % of control | dose: 400.0 mg/kg/injection, schedule: Q01DX009 (ip), vehicle: saline 95 % of control

OCCSc1ncc2cnccn12
inactive: dose: 100.0 mg/kg/injection, schedule: Q01DX009 (ip), vehicle: water 98 % of control | [8] 101 % of control | dose: 200.0 mg/kg/injection, schedule: Q01DX009 (ip), vehicle: water 96 % of control | [9] 93 % of control | dose: 400.0 mg/kg/injection, schedule: Q01DX009 (ip), vehicle: water 102 % of control | [10] 95 % of control

CC(=O)OC/C=C(\C)CCC1OC1(C)C (centres undefined)
inactive: [3] 120 % of control | [8] 102 % of control | [4] 108 % of control | [9] 112 % of control | [5] 114 % of control | [10] 101 % of control

CCCCNC(C)(C)C(SSSC(c1cccs1)C(C)(C)NCCCC)c1cccs1 (centres undefined)
inactive: dose: 100.0 mg/kg/injection, schedule: Q04DX003 (ip), vehicle: saline sonified 97 % of control | dose: 200.0 mg/kg/injection, schedule: Q04DX003 (ip), vehicle: saline sonified 107 % of control | dose: 400.0 mg/kg/injection, schedule: Q04DX003 (ip), vehicle: saline sonified 100 % of control

Cn1c(=O)c2[nH]c(-c3ccc4c(c3)OCO4)nc2n(C)c1=O
inactive: dose: 50.0 mg/kg/injection, schedule: Q01DX001 (ip), vehicle: other 95 % of control | [6] 97 % of control | [7] 95 % of control | [11] 86 % of control

CCN(CC)c1ccc(-c2cc(NS(=O)(=O)c3ccccc3)ccc2NS(=O)(=O)c2ccccc2)cc1
inactive: dose: 100.0 mg/kg/injection, schedule: Q01DX001 (ip), vehicle: Klucel (hydroxypropylcellulose) (HPC) 95 % of control

CN(N=O)C(=O)Nc1cccc2cccnc12
inactive: dose: 6.25 mg/kg/injection, schedule: Q01DX Z (ip), vehicle: carboxymethylcellulose (CMC) 101 % of control | dose: 12.5 mg/kg/injection, schedule: Q01DX Z (ip), vehicle: carboxymethylcellulose (CMC) 106 % of control | dose: 25.0 mg/kg/injection, schedule: Q01DX Z (ip), vehicle: carboxymethylcellulose (CMC) 124 % of control

N#CCCP(=S)(c1ccccc1)c1ccccc1
inactive: [6] 104 % of control | dose: 100.0 mg/kg/injection, schedule: Q04DX003 (ip), vehicle: other 102 % of control | [7] 98 % of control | dose: 200.0 mg/kg/injection, schedule: Q04DX003 (ip), vehicle: other 96 % of control | [11] 102 % of control | dose: 400.0 mg/kg/injection, schedule: Q04DX003 (ip), vehicle: other 90 % of control

O=[N+]([O-])C1CC=CCC1C(Cl)(Cl)Cl (centres undefined)
inactive: dose: 5.0 mg/kg/injection, schedule: Q04DX003 (ip), vehicle: saline sonified 95 % of control | dose: 10.0 mg/kg/injection, schedule: Q04DX003 (ip), vehicle: saline sonified 110 % of control | dose: 20.0 mg/kg/injection, schedule: Q04DX003 (ip), vehicle: saline sonified 98 % of control

CN(C)C(=O)OC(C)(C)C
inactive: dose: 100.0 mg/kg/injection, schedule: Q04DX002 (ip), vehicle: saline 97 % of control | dose: 200.0 mg/kg/injection, schedule: Q04DX002 (ip), vehicle: saline 101 % of control | dose: 400.0 mg/kg/injection, schedule: Q04DX002 (ip), vehicle: saline 97 % of control

Nc1nc2ccc(CNc3ccc(C(=O)NC(CC(=O)O)C(=O)O)cc3)cc2c(=O)[nH]1 (centres undefined)
inactive: dose: 18.7 mg/kg/injection, schedule: Q01DX001 (ip), vehicle: saline with Tween-80 102 % of control | dose: 37.5 mg/kg/injection, schedule: Q01DX001 (ip), vehicle: saline with Tween-80 113 % of control | dose: 75.0 mg/kg/injection, schedule: Q01DX001 (ip), vehicle: saline with Tween-80 115 % of control | dose: 100.0 mg/kg/injection, schedule: Q01DX001 (ip), vehicle: saline with Tween-80 109 % of control | dose: 200.0 mg/kg/injection, schedule: Q01DX001 (ip), vehicle: saline with Tween-80 109 % of control

COC(=O)c1ccc(OC)c2nc3c(C=O)c(OC)cc(OC)c3nc12
inactive: [1] 102 % of control | [2] 109 % of control | [12] 95 % of control

CC(=O)N(C)c1ccc(C)cc1C
inactive: [1] 104 % of control | [2] 98 % of control | [12] 93 % of control
